For test [1], the system named is G. lamblia trophozoites (luciferase expressing, WBC6). Put plainly: microbe, parasite or virus in culture. The test is classed as cell-based, Giardia lamblia. The conditions noted are these: initial Pathogen Box screen, single concentration 16 µM, inhibition compared to DMSO wells. The procedure, abridged:
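Incubation ran 24 h at 37 °C under anaerobic conditions, with compound added in equal volume to trophozoites (WBC6, luciferase-expressing, 250,000 cells/mL). Bioluminescence was the read-out, cross-checked by MOXI Z counts on a duplicate plate; metronidazole served as control (1:2 dilutions from 40 μM).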

Test [2] has as its system C. parvum (UGA1 Nluc expressing strain in HCT-8 cells). Put plainly: microbe, parasite or virus in culture. Format: cell-based, Cryptosporidium parvum. The conditions noted are these: initial Pathogen Box screen, single concentration 10 µM, inhibition compared to DMSO wells. The procedure, abridged:
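Parasite growth quantified by NanoLuc luminescence from lysed infected HCT-8 cells, with EC50 fitted from dose curves. Compounds, single-dose 10 μM or serially diluted, were added to confluent 48 h monolayers before infection with bleached UGA1 Nluc oocysts.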

As for `OC[C@H]1O[C@@H](n2c3ccc(Cl)cc3c3c(-c4cc5ccccc5o4)ncnc32)C(O)[C@H]1O` (stereo partly drawn) [MMV688921], the “Giardia (16 uM) Mean % inhibition” value in test [1] amounted to 5.44%. For the same compound, the “Crypto (10 uM) Mean % inhibition” value in test [2] was determined as 51%.
On the same counts, the results for `CCc1nn(C)c(C(=O)NCc2ccc(Oc3ccc(C)cc3)cc2)c1Cl` [MMV688934] are 72% and 88%.
The matching figures for `O=C(c1ccco1)N(CCCn1ccnc1)c1nc2c(Cl)cccc2s1` [MMV688936]: 31% and 6.36%.
In the case of `CCOc1ccc(-c2nc(CNCCc3ccc(F)cc3)cs2)cc1` [MMV688938], in test [1], the “Giardia (16 uM) Mean % inhibition” value is given as 65%. Moreover, the “Crypto (10 uM) Mean % inhibition” value in test [2] is “X* (Mean or standard deviation are negative but not significantly different from the control to be a growth promoter)”.
The matching figures for `Cc1ccc2nc(C)c(-c3ccn(Cc4ccccc4)n3)n2c1` [MMV688939]: “X* (Mean or standard deviation are negative but not significantly different from the control to be a growth promoter)” and 73%.
Take `COc1cc(CN2CCC3(C=Cc4ccccc43)CC2)cc2c1OCO2` [MMV688941]: the “Giardia (16 uM) Mean % inhibition” value in test [1] is on record as 62%. Also, in test [2], the “Crypto (10 uM) Mean % inhibition” value came out at 56%.
The matching figures for `CC(C)(C)C(O)C(Oc1ccc(-c2ccccc2)cc1)n1cncn1` (stereo not drawn) [MMV688942]: 40% and “X* (Mean or standard deviation are negative but not significantly different from the control to be a growth promoter)”.
For `CC1COC(Cn2cncn2)(c2ccc(Oc3ccc(Cl)cc3)cc2Cl)O1` (stereo not drawn) [MMV688943], the “Giardia (16 uM) Mean % inhibition” value in test [1] was determined as 81%. Also, the “Crypto (10 uM) Mean % inhibition” value in test [2] stood at 46%.
As to `Cc1cc(NC(=O)c2ccc(Oc3ccc(Cl)cc3O)o2)no1` [MMV688955], in test [1], the “Giardia (16 uM) Mean % inhibition” value worked out at 26%. For the same compound, in test [2], the “Crypto (10 uM) Mean % inhibition” value turned out to be 50%.
The matching figures for `CCc1cc(=O)n(C)c(SC(C)C(=O)Nc2ccc(F)cc2)n1` (stereo not drawn) [MMV688980]: 17% and “X* (Mean or standard deviation are negative but not significantly different from the control to be a growth promoter)”.
On the same counts, the results for `CCCCCCCCCCCCCCCCOP(=O)([O-])OCC[N+](C)(C)C` [MMV688990] are “X* (Mean or standard deviation are negative but not significantly different from the control to be a growth promoter)” and “X* (Mean or standard deviation are negative but not significantly different from the control to be a growth promoter)”.
Turning to `CNC1C(OC2C(OC3C(O)C(O)C(N=C(N)N)C(O)C3N=C(N)N)OC(C)C2(O)C=O)OC(CO)C(O)C1O` (stereo not drawn) [MMV688994], the “Giardia (16 uM) Mean % inhibition” value in test [1] is on record as “X* (Mean or standard deviation are negative but not significantly different from the control to be a growth promoter)”. Moreover, the “Crypto (10 uM) Mean % inhibition” value in test [2] is 47%.
With `C[C@@H]1[C@H](O)[C@@H](C)/C=C/C=C/C=C/C=C/C=C/C=C/C=C/[C@H](O[C@@H]2O[C@H](C)[C@@H](O)[C@H](N)[C@@H]2O)C[C@@H]2O[C@](O)(C[C@@H](O)C[C@@H](O)[C@H](O)CC[C@@H](O)C[C@@H](O)CC(=O)O[C@H]1C)C[C@H](O)[C@H]2C(=O)O` [MMV689000], the “Giardia (16 uM) Mean % inhibition” value in test [1] worked out at 41%. Further, the “Crypto (10 uM) Mean % inhibition” value in test [2] is listed as “X* (Mean or standard deviation are negative but not significantly different from the control to be a growth promoter)”.
The matching figures for `Cc1ccc(S(=O)(=O)Nc2ccc(CN3CCN(C(=O)c4cccc(C#N)c4)CC3)cc2)cc1` [MMV689028]: 56% and 58%.
With `COc1ccc(S(=O)(=O)Nc2ccc(CN3CCN(C(=O)c4cccc(C#N)c4)CC3)cc2)cc1` [MMV689029], in test [1], the “Giardia (16 uM) Mean % inhibition” value was determined as 54%. Also, in test [2], the “Crypto (10 uM) Mean % inhibition” value stood at 54%.
As to `Clc1ccc(CN2CCN(C3=NCCN3)CC2)cc1Cl` [MMV689060], in test [1], the “Giardia (16 uM) Mean % inhibition” value is reported as “X* (Mean or standard deviation are negative but not significantly different from the control to be a growth promoter)”. Also, the “Crypto (10 uM) Mean % inhibition” value in test [2] is given as 50%.
Turning to `CC(=O)Nc1ccc(-c2noc(CC3CCCN(Cc4cccc(F)c4C)C3)n2)cc1` (stereo not drawn) [MMV689061], the “Giardia (16 uM) Mean % inhibition” value in test [1] was found to be 17%. The “Crypto (10 uM) Mean % inhibition” value in test [2] was 59%.
With `FC(F)(F)c1ccc(N(c2cccnc2)C2CCN(c3ccc(C(F)(F)F)cn3)CC2)cc1` [MMV689243], the “Giardia (16 uM) Mean % inhibition” value in test [1] is listed as 11%. Moreover, in test [2], the “Crypto (10 uM) Mean % inhibition” value is “X* (Mean or standard deviation are negative but not significantly different from the control to be a growth promoter)”.
Regarding `O=C([C@@H](c1ccc(Cl)cc1)c1cccnc1)N1CCN(c2ccc(C(F)(F)F)cc2)CC1` [MMV689244], the “Giardia (16 uM) Mean % inhibition” value in test [1] was determined as 33%. In addition, the “Crypto (10 uM) Mean % inhibition” value in test [2] is “X* (Mean or standard deviation are negative but not significantly different from the control to be a growth promoter)”.
For `Nc1ncnc2c1ncn2C[C@@H](O)[C@@H](O)C(=O)O` [MMV689255], the “Giardia (16 uM) Mean % inhibition” value in test [1] was found to be 33%. Also, in test [2], the “Crypto (10 uM) Mean % inhibition” value turned out to be 46%.
The matching figures for `CC(c1cc(Cl)cc(Cl)c1)N(C)c1ncc2c(N)nc(N)nc2n1` (stereo not drawn) [MMV689437]: 46% and “X* (Mean or standard deviation are negative but not significantly different from the control to be a growth promoter)”.
The matching figures for `CNc1cc(C)nc(C2CN(C(=O)c3n[nH]c4ccccc34)CCO2)c1` (stereo not drawn) [MMV689709]: 19% and 45%.
As to `COc1nc2ccc(Br)cc2cc1[C@@H](c1ccccc1)[C@@](O)(CCN(C)C)c1cccc2ccccc12` [MMV689758], the “Giardia (16 uM) Mean % inhibition” value in test [1] is 62%. Further, the “Crypto (10 uM) Mean % inhibition” value in test [2] amounted to 68%.
Regarding `COc1ccc(C2=NN(C3CCCCCC3)C(=O)[C@@H]3CC=CC[C@H]23)cc1OCCCCOc1ccc(-c2nn[nH]n2)cc1` [MMV690027], the “Giardia (16 uM) Mean % inhibition” value in test [1] turned out to be 24%. In addition, the “Crypto (10 uM) Mean % inhibition” value in test [2] amounted to 44%.
Consider `COc1ccc(C2=NN(C3CCCCCC3)C(=O)C2(C)C)cc1OCCCCOc1ccc(-c2nn[nH]n2)cc1` [MMV690028], for which, in test [1], the “Giardia (16 uM) Mean % inhibition” value was found to be 70%. Also, the “Crypto (10 uM) Mean % inhibition” value in test [2] was determined as 61%.
As for `COc1ccc(Oc2ccc([C@@H](C)N(C)c3ncc4c(N)nc(N)nc4n3)cc2)cc1` [MMV690102], the “Giardia (16 uM) Mean % inhibition” value in test [1] turned out to be 62%. In test [2], the “Crypto (10 uM) Mean % inhibition” value was determined as 77%.
Consider `C[C@H](c1ccc2c(c1)CCCC2)N(C)c1ncc2c(N)nc(N)nc2n1` [MMV690103], for which, in test [1], the “Giardia (16 uM) Mean % inhibition” value is given as 49%. Moreover, in test [2], the “Crypto (10 uM) Mean % inhibition” value turned out to be 78%.
The matching figures for `CCc1ccc(C(NCc2nc(N)nc(N(C)C)n2)C(C)C)cc1` (stereo not drawn) [MMV1019989]: 4.4% and “X* (Mean or standard deviation are negative but not significantly different from the control to be a growth promoter)”.
For `O=C(Nc1nc(-c2ccccn2)cs1)C1CC1c1ccccc1F` (stereo not drawn) [MMV1028806], the “Giardia (16 uM) Mean % inhibition” value in test [1] is on record as “X* (Mean or standard deviation are negative but not significantly different from the control to be a growth promoter)”. Also, the “Crypto (10 uM) Mean % inhibition” value in test [2] is listed as 91%.
The matching figures for `CNC(=O)CNc1nc(-c2ccccn2)nc2scc(-c3ccccc3)c12` [MMV1029203]: 4% and 21%.
The matching figures for `CCCn1c(NC(=O)c2ccc3ccccc3n2)nc2ccccc21` [MMV1030799]: 13% and 81%.
The matching figures for `CCNC(=O)C(C)Nc1nc(-c2cccnc2)nc2sc(C)c(C)c12` (stereo not drawn) [MMV1037162]: 11% and 20%.
As for `Cc1ccc(-c2nc(CN(Cc3ccccn3)C(C)C)cs2)o1` [MMV1088520], the “Giardia (16 uM) Mean % inhibition” value in test [1] was found to be 52%. The “Crypto (10 uM) Mean % inhibition” value in test [2] is listed as 27%.
Regarding `COc1cccn2c(C(=O)N3CCCCC3)c(C(F)(F)F)nc12` [MMV1110498], the “Giardia (16 uM) Mean % inhibition” value in test [1] was 61%. In test [2], the “Crypto (10 uM) Mean % inhibition” value is reported as 60%.
As for `Cc1cc(OCC(=O)Nc2ccc(C(C)C)cc2)n(C)c(=O)c1C#N` [MMV1198433], the “Giardia (16 uM) Mean % inhibition” value in test [1] is given as 10%. Moreover, the “Crypto (10 uM) Mean % inhibition” value in test [2] was 52%.
In the case of `CCOC(=O)c1noc(N)c1-c1ccccc1` [MMV1236379], the “Giardia (16 uM) Mean % inhibition” value in test [1] was “X* (Mean or standard deviation are negative but not significantly different from the control to be a growth promoter)”. For the same compound, the “Crypto (10 uM) Mean % inhibition” value in test [2] is “X* (Mean or standard deviation are negative but not significantly different from the control to be a growth promoter)”.

Source of the values: paper PMC6095626, “Screening of the Pathogen Box for inhibitors with dual efficacy against Giardia lamblia and Cryptosporidium parvum” (PLoS Neglected Tropical Diseases, 2018).
